ChEMBL document CHEMBL2163236, “7-Oxo-[1,4]oxazino[2,3,4-ij]quinoline-6-carboxamides as selective CB(2) cannabinoid receptor ligands: structural investigations around a novel class of full agonists” (J Med Chem, 2012)
pIC50, pKi: −log10 of the molar value.

Experiments:
Cannabinoid receptor 1 [1] = target: Cannabinoid receptor 1 (Homo sapiens, UniProt P21554); test: Displacement of [3H]CP-55940 from human recombinant CB1 receptor expressed in CHO cell membranes incubated for 90 mins by scintillation counting
Homo sapiens = organism: Homo sapiens; test: Selectivity ratio of Ki for human recombinant CB1 receptor to KI for human recombinant CB2 receptor
Cannabinoid receptor 2 [2] = target: T1, Cannabinoid receptor 2 (Rattus norvegicus, UniProt Q9QZN9); test: Displacement of [3H]CP-55940 from CB2 receptor in Sprague-Dawley rat spleen by scintillation counting
T1 sequence (Q9QZN9 whole entry): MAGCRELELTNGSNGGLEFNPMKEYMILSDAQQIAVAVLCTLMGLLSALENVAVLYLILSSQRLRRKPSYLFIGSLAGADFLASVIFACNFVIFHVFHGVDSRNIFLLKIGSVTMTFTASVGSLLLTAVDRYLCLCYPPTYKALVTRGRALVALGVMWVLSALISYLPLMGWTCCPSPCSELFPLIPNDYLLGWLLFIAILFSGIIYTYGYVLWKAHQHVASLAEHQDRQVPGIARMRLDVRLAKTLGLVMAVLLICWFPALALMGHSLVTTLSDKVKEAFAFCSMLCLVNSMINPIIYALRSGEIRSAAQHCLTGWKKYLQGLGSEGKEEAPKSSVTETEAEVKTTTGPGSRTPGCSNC

Cannabinoid receptor 2 [3] = target: T2, Cannabinoid receptor 2 (Homo sapiens, UniProt P34972); test: Agonist activity at human recombinant CB2 receptor expressed in CHO cell membranes assessed as inhibition of forskolin-induced cAMP accumulation; format: functional, cell-based
Cannabinoid receptor 1 [4] = target: Cannabinoid receptor 1 (Rattus norvegicus, UniProt P20272); test: Displacement of [3H]CP-55940 from CB1 receptor in Sprague-Dawley rat brain by scintillation counting
Cannabinoid receptor 2 [5] = target: T2, Cannabinoid receptor 2; test: Displacement of [3H]CP-55940 from human recombinant CB2 receptor expressed in CHO cell membranes incubated for 60 mins by scintillation counting

Cannabinoid receptor 1 (Rattus norvegicus, UniProt P20272), sequence (P20272 whole entry): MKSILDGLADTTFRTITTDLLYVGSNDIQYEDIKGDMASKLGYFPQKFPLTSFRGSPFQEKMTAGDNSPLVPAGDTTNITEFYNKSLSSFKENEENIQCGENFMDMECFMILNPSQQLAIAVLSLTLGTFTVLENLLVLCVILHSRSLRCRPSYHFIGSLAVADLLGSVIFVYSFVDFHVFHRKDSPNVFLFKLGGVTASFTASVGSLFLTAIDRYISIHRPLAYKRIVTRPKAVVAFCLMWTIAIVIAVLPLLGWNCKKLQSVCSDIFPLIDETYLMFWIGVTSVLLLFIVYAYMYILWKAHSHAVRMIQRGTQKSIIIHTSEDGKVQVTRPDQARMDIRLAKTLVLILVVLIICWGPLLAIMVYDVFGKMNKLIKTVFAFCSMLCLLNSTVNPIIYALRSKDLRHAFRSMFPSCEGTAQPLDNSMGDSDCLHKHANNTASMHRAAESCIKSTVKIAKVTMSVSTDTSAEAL
T2 sequence (P34972 whole entry): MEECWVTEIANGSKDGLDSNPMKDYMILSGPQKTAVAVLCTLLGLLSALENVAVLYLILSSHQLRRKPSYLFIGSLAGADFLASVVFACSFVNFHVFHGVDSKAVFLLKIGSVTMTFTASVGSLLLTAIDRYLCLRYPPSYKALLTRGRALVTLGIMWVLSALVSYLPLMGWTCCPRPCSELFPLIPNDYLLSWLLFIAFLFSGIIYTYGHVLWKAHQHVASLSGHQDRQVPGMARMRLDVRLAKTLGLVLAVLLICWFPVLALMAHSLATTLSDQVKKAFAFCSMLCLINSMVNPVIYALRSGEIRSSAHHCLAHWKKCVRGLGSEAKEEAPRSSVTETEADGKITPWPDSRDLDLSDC
Cannabinoid receptor 1 (Homo sapiens, UniProt P21554), sequence (P21554 whole entry): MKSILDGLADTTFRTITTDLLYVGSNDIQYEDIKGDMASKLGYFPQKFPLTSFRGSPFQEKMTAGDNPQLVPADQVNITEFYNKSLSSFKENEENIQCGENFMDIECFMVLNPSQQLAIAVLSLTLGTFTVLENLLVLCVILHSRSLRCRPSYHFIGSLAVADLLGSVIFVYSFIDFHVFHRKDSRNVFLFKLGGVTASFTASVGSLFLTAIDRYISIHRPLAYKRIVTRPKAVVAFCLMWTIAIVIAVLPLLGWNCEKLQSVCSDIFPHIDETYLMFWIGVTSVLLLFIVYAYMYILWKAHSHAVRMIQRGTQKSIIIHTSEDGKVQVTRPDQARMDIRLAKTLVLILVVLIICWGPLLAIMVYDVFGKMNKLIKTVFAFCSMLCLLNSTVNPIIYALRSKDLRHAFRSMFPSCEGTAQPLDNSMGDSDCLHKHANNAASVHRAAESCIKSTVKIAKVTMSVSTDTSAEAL

Compound	pKi (Cannabinoid receptor 1 [1])	Ratio Ki (Homo sapiens)	pKi (Cannabinoid receptor 2 [2])	pIC50 (Cannabinoid receptor 2 [3])	pKi (Cannabinoid receptor 1 [4])	pKi (Cannabinoid receptor 2 [5])
CCC1COc2cccc3c(=O)c(C(=O)Nc4nccs4)cn1c23 (racemic)	5.86	5	6.49	5.95	5.79	6.58
CCC1COc2cccc3c(=O)c(C(=O)N(C(C)C)C(C)C)cn1c23 (racemic)	< 5.00	> 118	6.98	6.37	< 5.00	7.07
CCCC1COc2cccc3c(=O)c(C(=O)NC4CCCCC4)cn1c23 (racemic)	7.99	32	8.74	8.82	7.87	9.49
CCCC1COc2cccc3c(=O)c(C(=O)NC45CC6CC(CC(C6)C4)C5)cn1c23 (racemic)	6.67	92	8.56	7.82	6.62	8.63
CCCC1COc2cccc3c(=O)c(C(=O)NC45CC6CC(C)(CC(C)(C6)C4)C5)cn1c23 (racemic)	6.70	55	7.97	7.70	6.32	8.44
CCCC1COc2ccc(C)c3c(=O)c(C(=O)NC4CCCCC4)cn1c23 (racemic)	6.12	20	7.37	6.91	6.06	7.42
CCCC1COc2ccc(C)c3c(=O)c(C(=O)NC45CC6CC(CC(C6)C4)C5)cn1c23 (racemic)	6.35	43	7.88	7.38	6.32	7.98
O=C(NC1CCCCC1)c1cn2c3c(cccc3c1=O)OCC2C1CC1 (racemic)	6.99	7	7.74	7.17	6.91	7.82
O=C(NC1CCCCCC1)c1cn2c3c(cccc3c1=O)OCC2C1CC1 (racemic)	7.04	29	8.45	7.91	7.00	8.51
O=C(NC12CC3CC(CC(C3)C1)C2)c1cn2c3c(cccc3c1=O)OCC2C1CC1 (racemic)	6.41	44	7.99	7.49	6.32	8.05
CC(C)C1COc2cccc3c(=O)c(C(=O)NC45CC6CC(CC(C6)C4)C5)cn1c23 (racemic)	6.49	86	8.37	7.91	6.44	8.43
CCC1COc2c(F)ccc3c(=O)c(C(=O)NC45CC6CC(CC(C6)C4)C5)cn1c23 (racemic)	6.41	53	8.02	7.57	6.34	8.13
CCC1COc2c(F)c(F)cc3c(=O)c(C(=O)NC45CC6CC(CC(C6)C4)C5)cn1c23 (racemic)	5.76	53	7.43	6.84	5.74	7.48
CCC1COc2c(OC)ccc3c(=O)c(C(=O)NC45CC6CC(CC(C6)C4)C5)cn1c23 (racemic)	6.28	77	8.04	7.62	6.23	8.17
O=C(NC12CC3CC(CC(C3)C1)C2)c1cn2c3c(cccc3c1=O)OC(c1ccccc1)C2c1ccccc1 (racemic)	< 5.00		< 5.00		< 5.00	< 5.00
Cc1cc2c3c(c1)c(=O)c(C(=O)NC14CC5CC(CC(C5)C1)C4)cn3C(c1ccccc1)CO2 (racemic)				6.33		
